Measured values published in the NIST ThermoML archive (doi:10.1007/s10765-005-5570-x).
± gives the expanded uncertainty stated by the source.

Test: xn = mol fraction of the nth substance listed
Conditions: Liquid

Structure (SMILES): ClCBr [bromochloromethane] + CCOC(C)=O
- mass density (288.15 K, 101.33 kPa, x1 = 0.0961): 976.08 ± 0.36 kg/m3
- mass density (288.15 K, 101.33 kPa, x1 = 0.2333): 1083.23 ± 0.51 kg/m3
- mass density (288.15 K, 101.33 kPa, x1 = 0.3083): 1145.77 ± 0.65 kg/m3
- mass density (288.15 K, 101.33 kPa, x1 = 0.4015): 1228.4 ± 0.84 kg/m3
- mass density (288.15 K, 101.33 kPa, x1 = 0.5004): 1322.97 ± 1.1 kg/m3
- mass density (288.15 K, 101.33 kPa, x1 = 0.604): 1430.45 ± 1.3 kg/m3
- mass density (288.15 K, 101.33 kPa, x1 = 0.7004): 1538.94 ± 1.6 kg/m3
- mass density (288.15 K, 101.33 kPa, x1 = 0.7987): 1659.96 ± 1.9 kg/m3
- mass density (288.15 K, 101.33 kPa, x1 = 0.9032): 1800.66 ± 2.2 kg/m3
- mass density (288.15 K, 101.33 kPa, x1 = 1): 1945.94 ± 2.6 kg/m3
- mass density (298.15 K, 101.33 kPa, x1 = 0.0961): 963.62 ± 0.38 kg/m3
- mass density (298.15 K, 101.33 kPa, x1 = 0.2333): 1069.74 ± 0.48 kg/m3
- mass density (298.15 K, 101.33 kPa, x1 = 0.3083): 1131.77 ± 0.62 kg/m3
- mass density (298.15 K, 101.33 kPa, x1 = 0.4015): 1213.84 ± 0.81 kg/m3
- mass density (298.15 K, 101.33 kPa, x1 = 0.5004): 1308.02 ± 1 kg/m3
- mass density (298.15 K, 101.33 kPa, x1 = 0.604): 1414.77 ± 1.3 kg/m3
- mass density (298.15 K, 101.33 kPa, x1 = 0.7004): 1522.14 ± 1.6 kg/m3
- mass density (298.15 K, 101.33 kPa, x1 = 0.7987): 1641.51 ± 1.9 kg/m3
- mass density (298.15 K, 101.33 kPa, x1 = 0.9032): 1780.71 ± 2.2 kg/m3
- mass density (298.15 K, 101.33 kPa, x1 = 1): 1924.88 ± 2.5 kg/m3
- mass density (298.15 K, 200 kPa, x1 = 0.2995): 1118.5 ± 0.59 kg/m3
- mass density (298.15 K, 200 kPa, x1 = 0.5013): 1299.53 ± 1 kg/m3
- mass density (298.15 K, 200 kPa, x1 = 0.6994): 1514.36 ± 1.6 kg/m3
- mass density (298.15 K, 600 kPa, x1 = 0.2995): 1119.03 ± 0.6 kg/m3
- mass density (298.15 K, 600 kPa, x1 = 0.5013): 1300.17 ± 1.1 kg/m3
- mass density (298.15 K, 700 kPa, x1 = 0.6994): 1515.04 ± 1.6 kg/m3
- mass density (298.15 K, 1100 kPa, x1 = 0.2995): 1119.69 ± 0.62 kg/m3
- mass density (298.15 K, 1200 kPa, x1 = 0.5013): 1300.97 ± 1.1 kg/m3
- mass density (298.15 K, 1200 kPa, x1 = 0.6994): 1515.77 ± 1.7 kg/m3
- mass density (298.15 K, 1900 kPa, x1 = 0.6994): 1516.63 ± 1.7 kg/m3
- mass density (298.15 K, 2000 kPa, x1 = 0.2995): 1120.79 ± 0.64 kg/m3
- mass density (298.15 K, 2100 kPa, x1 = 0.5013): 1301.96 ± 1.1 kg/m3
- mass density (298.15 K, 3000 kPa, x1 = 0.5013): 1303.21 ± 1.2 kg/m3
- mass density (298.15 K, 3100 kPa, x1 = 0.2995): 1121.97 ± 0.67 kg/m3
- mass density (298.15 K, 3100 kPa, x1 = 0.6994): 1518.35 ± 1.9 kg/m3
- mass density (298.15 K, 4000 kPa, x1 = 0.2995): 1123.04 ± 0.69 kg/m3
- mass density (298.15 K, 4000 kPa, x1 = 0.5013): 1304.49 ± 1.3 kg/m3
- mass density (298.15 K, 4000 kPa, x1 = 0.6994): 1519.64 ± 2 kg/m3
- mass density (298.15 K, 4900 kPa, x1 = 0.5013): 1305.64 ± 1.3 kg/m3
- mass density (298.15 K, 5100 kPa, x1 = 0.2995): 1124.32 ± 0.72 kg/m3
- mass density (298.15 K, 5100 kPa, x1 = 0.6994): 1521.08 ± 2.1 kg/m3
- mass density (298.15 K, 5800 kPa, x1 = 0.6994): 1522.03 ± 2.2 kg/m3
- mass density (298.15 K, 6000 kPa, x1 = 0.5013): 1306.93 ± 1.4 kg/m3
- mass density (298.15 K, 6100 kPa, x1 = 0.2995): 1125.53 ± 0.75 kg/m3
- mass density (298.15 K, 6800 kPa, x1 = 0.6994): 1523.33 ± 2.3 kg/m3
- mass density (298.15 K, 6900 kPa, x1 = 0.2995): 1126.38 ± 0.78 kg/m3
- mass density (298.15 K, 7000 kPa, x1 = 0.5013): 1308.07 ± 1.5 kg/m3
- mass density (298.15 K, 7800 kPa, x1 = 0.5013): 1309.22 ± 1.6 kg/m3
- mass density (298.15 K, 7900 kPa, x1 = 0.2995): 1127.44 ± 0.81 kg/m3
- mass density (298.15 K, 7900 kPa, x1 = 0.6994): 1524.7 ± 2.5 kg/m3
- mass density (298.15 K, 8700 kPa, x1 = 0.6994): 1525.86 ± 2.6 kg/m3
- mass density (298.15 K, 8800 kPa, x1 = 0.5013): 1310.44 ± 1.6 kg/m3
- mass density (298.15 K, 9000 kPa, x1 = 0.2995): 1128.74 ± 0.84 kg/m3
- mass density (298.15 K, 9800 kPa, x1 = 0.5013): 1311.74 ± 1.7 kg/m3
- mass density (298.15 K, 9800 kPa, x1 = 0.6994): 1527.42 ± 2.7 kg/m3
- mass density (298.15 K, 9900 kPa, x1 = 0.2995): 1129.86 ± 0.87 kg/m3
- mass density (298.15 K, 11800 kPa, x1 = 0.2995): 1131.84 ± 0.93 kg/m3
- mass density (298.15 K, 11900 kPa, x1 = 0.6994): 1530.29 ± 3 kg/m3
- mass density (298.15 K, 12100 kPa, x1 = 0.5013): 1314.57 ± 1.9 kg/m3
- mass density (298.15 K, 13800 kPa, x1 = 0.2995): 1134.16 ± 1 kg/m3
- mass density (298.15 K, 13800 kPa, x1 = 0.6994): 1532.98 ± 3.2 kg/m3
- mass density (298.15 K, 13900 kPa, x1 = 0.5013): 1316.83 ± 2 kg/m3
- mass density (298.15 K, 15700 kPa, x1 = 0.2995): 1136.18 ± 1.1 kg/m3
- mass density (298.15 K, 15900 kPa, x1 = 0.5013): 1319.23 ± 2.2 kg/m3
- mass density (298.15 K, 15900 kPa, x1 = 0.6994): 1535.7 ± 3.5 kg/m3
- mass density (298.15 K, 17600 kPa, x1 = 0.5013): 1321.38 ± 2.3 kg/m3
- mass density (298.15 K, 17700 kPa, x1 = 0.2995): 1138.39 ± 1.1 kg/m3
- mass density (298.15 K, 17700 kPa, x1 = 0.6994): 1538.2 ± 3.7 kg/m3
- mass density (298.15 K, 19200 kPa, x1 = 0.6994): 1540.32 ± 3.9 kg/m3
- mass density (298.15 K, 19400 kPa, x1 = 0.6994): 1540.59 ± 3.9 kg/m3
- mass density (298.15 K, 19900 kPa, x1 = 0.5013): 1324.19 ± 2.5 kg/m3
- mass density (298.15 K, 20000 kPa, x1 = 0.2995): 1140.92 ± 1.2 kg/m3
- mass density (308.15 K, 101.33 kPa, x1 = 0.0961): 949.99 ± 0.4 kg/m3
- mass density (308.15 K, 101.33 kPa, x1 = 0.2333): 1054.79 ± 0.46 kg/m3
- mass density (308.15 K, 101.33 kPa, x1 = 0.3083): 1116.41 ± 0.59 kg/m3
- mass density (308.15 K, 101.33 kPa, x1 = 0.4015): 1197.33 ± 0.78 kg/m3
- mass density (308.15 K, 101.33 kPa, x1 = 0.5004): 1290.38 ± 1 kg/m3
- mass density (308.15 K, 101.33 kPa, x1 = 0.604): 1396.09 ± 1.2 kg/m3
- mass density (308.15 K, 101.33 kPa, x1 = 0.7004): 1502.46 ± 1.5 kg/m3
- mass density (308.15 K, 101.33 kPa, x1 = 0.7987): 1620.66 ± 1.8 kg/m3
- mass density (308.15 K, 101.33 kPa, x1 = 0.9032): 1758.33 ± 2.1 kg/m3
- mass density (308.15 K, 101.33 kPa, x1 = 1): 1900.86 ± 2.5 kg/m3
